{
  "source": "patent US20240173440A1",
  "about": "“HIGH PURITY COPPER RADIOPHARMACEUTICAL COMPOSITIONS AND DIAGNOSTIC AND THERAPEUTIC USES THEREOF” (Nuclidium AG, priority 2022, published 2024)",
  "key": {"[1]": {"assay": "in vivo", "conditions": "athymic nude Foxn1+Foxn1+, mouse, iv, 200 umol, total radioactivity", "method": "The tumors were allowed to grow for 1-3 weeks before commencement of the experiments.\n(§1) The mice were randomly distributed in groups and euthanized at 1 and at 4 hours post-injection. The organs of interest were collected, rinsed, blotted, weighed and counted in a gamma counter. The results are expressed as percentage of injected activity per gram (% IA/g), representing the mean±standard deviation of n=4-8 mice per group and they were obtained by extrapolation from counts of an aliquot taken from the injected solution as standard.\nThe mice were randomly distributed in groups, injected with the radiotracer under investigation and euthanized at 1 and at 4 hours post-injection of the radiotracers under investigation. The organs of interest were collected, rinsed, blotted, weighed and counted in a gamma counter. The results are expressed as percentage of injected activity per gram (% IA/g), representing the mean±standard deviation of all mice per group and they were obtained by extrapolation from counts of an aliquot taken from the injected solution as standard.\nThe mice were randomly distributed in groups and euthanized at 4 hours post-injection. The organs of interest were collected, rinsed, blotted, weighed, and their respective radioactivity was counted in a gamma counter."}, "[2]": {"assay": "Lipophilicity, log D by shake-flask method (1-octanol/PBS pH 7.4)", "assay_type": "physicochemical", "conditions": "Table 17, mean ± SD", "protocol": "The radiotracer (1 μM) was added to a 50:50 pre-saturated mixture of 1-octanol and phosphate buffered saline (PBSpH 7.4). The solution was vortexed for 30 min and then centrifuged at 3,000 rpm to achieve a phase separation. Aliquots from each phase were collected and measured in a gamma-counter. The distribution coefficient was calculated as the average of the logarithmic values of the ratio between the radioactivity in the organic and the PBS phase.\nTable 17. Lipophilicity expressed as the log distribution coefficient D (log D(Octanol/PBS pH7.4)) of ^61Cu-radiotracers versus ^68Ga-radiotracers (reference radiotracers).\nIn a pre-lubricated Eppendorf tube, a pre-saturated mixture of 500 μL of 1-octanol and 500 μL of PBS pH 7.4 (phosphate-buffered saline) were added. An aliquot of […] in 10 μL of the radioligand was added to this mixture, shaken for 30 min, and then centrifuged at 3000 rcf for 10 min to achieve phase separation. Aliquots of 100 μL were removed from the 1-octanol and from the PBS phases, and the activity was measured in a […]. The partition coefficient was calculated as the average log ratio value of the radioactivity in the organic fraction and PBS fraction."}, "[3]": {"system": "LNCaP xenografts", "assay": "Quantitative biodistribution in LNCaP xenografted mice", "assay_type": "in vivo", "conditions": "LNCap xenograft mice, 1 h after injection", "method": "as §1\nThe biodistribution of the [^61Cu]Cu-NODAGA radiotracers was compared with the reference compounds used in patients under identical experimental conditions. The mice were randomly distributed in groups, injected with the radiotracer under investigation and euthanized at 1 and at 4 hours post-injection of the radiotracers under investigation. The organs of interest were collected, rinsed, blotted, weighed and counted in a gamma counter. The results are expressed as percentage of injected activity per gram (% IA/g), representing the mean±standard deviation of all mice per group and they were obtained by extrapolation from counts of an aliquot taken from the injected solution as standard."}, "[4]": {"assay": "Pharmacokinetics (biodistribution 1-24 h) in non-tumor bearing mice", "assay_type": "in vivo", "conditions": "for tissue uptake at 1 h / tissue uptake at 4 h / tissue uptake at 12 h / tissue uptake at 24 h: female, BALB/c, mouse, 200 umol, total radioactivity; for tissue uptake at 1 h: 1 hour after injection; for tissue uptake at 1 h / tissue uptake at 4 h: ^61Cu; for tissue uptake at 4 h: 4 hours after injection; for tissue uptake at 12 h: 12 hours after injection; for tissue uptake at 12 h / tissue uptake at 24 h: ^64Cu; for tissue uptake at 24 h: 24 hours after injection", "protocol": "The biodistribution at the investigate time points was performed as described in the Example 9. The data were combined with the results obtained from the groups of xenografts at 1 hour and 4 hours p.i., as the biodistribution in nude mice was the same as in the healthy mice. The results were expressed as described in the Example 10."}, "[5]": {"conditions": "adrenal, read-out: Biodistribution Adrenal"}, "[6]": {"conditions": "blood, read-out: Biodistribution Blood"}, "[7]": {"conditions": "femur, read-out: Biodistribution Femur"}, "[8]": {"conditions": "heart, read-out: Biodistribution Heart"}, "[9]": {"conditions": "intestine, read-out: Biodistribution Intestine"}, "[10]": {"conditions": "kidneys, read-out: Biodistribution Kidneys"}, "[11]": {"conditions": "liver, read-out: Biodistribution Liver"}, "[12]": {"conditions": "lung, read-out: Biodistribution Lung"}, "[13]": {"conditions": "muscle, read-out: Biodistribution Muscles"}, "[14]": {"conditions": "pancreas, read-out: Biodistribution Pancreas"}, "[15]": {"conditions": "pituitary, read-out: Biodistribution Pituitary"}, "[16]": {"conditions": "spleen, read-out: Biodistribution Spleen"}, "[17]": {"conditions": "stomach, read-out: Biodistribution Stomach"}},
  "note": "Like-named read-outs stand apart in the source and are kept apart here.",
  "data": [
    {"smiles": "C[C@@H](O)[C@@H]1NC(=O)[C@H](CCCCN)NC(=O)[C@@H](Cc2c[nH]c3ccccc23)NC(=O)[C@H](Cc2ccc(O)cc2)NC(=O)[C@@H](NC(=O)[C@@H](Cc2ccccc2)NC(=O)CCC(C(=O)O)N2CCN(CC(=O)O)CCN(CC(=O)O)CC2)CSSC[C@@H](C(=O)N[C@H](CO)[C@@H](C)O)NC1=O", "note": "(single isomer, unassigned) [[^61Cu]Cu-NODAGA-TOC, metal not drawn]", "values": [
      {"measurement": "tissue uptake at 1 h", "setting": "[1]; Biodistribution HEK-SST2", "value": "8.88 ± 3.19", "unit": "%ID/g"},
      {"measurement": "tissue uptake at 1 h", "setting": "[1]; Biodistribution Kidney", "value": "12.5 ± 2.25", "unit": "%ID/g"}
    ]},
    {"smiles": "C[C@@H](O)[C@@H]1NC(=O)[C@H](CCCCN)NC(=O)[C@@H](Cc2c[nH]c3ccccc23)NC(=O)[C@H](Cc2ccc(O)cc2)NC(=O)[C@@H](NC(=O)[C@@H](Cc2ccccc2)NC(=O)CCC(C(=O)O)N2CCN(CC(=O)O)CCN(CC(=O)O)CC2)CSSC[C@@H](C(=O)N[C@H](CO)[C@@H](C)O)NC1=O", "note": "(single isomer, unassigned) [[^68Ga]Ga-NODAGA-TOC, metal not drawn]", "values": [
      {"measurement": "logD", "setting": "[2]; pH 7.4, shake-flask, read-out: log D(O/PBS pH 7.4)", "value": "-2.48 ± 0.3"}
    ]},
    {"smiles": "O=C([O-])CN(CCN(CC(=O)[O-])Cc1cc(CCC(=O)NCCCCCC(=O)NCCCC[C@H](NC(=O)N[C@@H](CCC(=O)O)C(=O)O)C(=O)O)ccc1[O-])Cc1cc(CCC(=O)O)ccc1[O-].[68Ga+3].[OH3+]", "note": "[[^68Ga]Ga-PSMA-11]", "values": [
      {"measurement": "log D(O/PBS pH 7.4)", "setting": "[2]; shake-flask", "value": "−3.89 ± 0.19"},
      {"measurement": "Biodistribution Adrenal", "setting": "[3]", "value": "19.2 ± 5.35", "unit": "% IA/g"},
      {"measurement": "Biodistribution Blood", "setting": "[3]", "value": "0.25 ± 0.07", "unit": "% IA/g"},
      {"measurement": "Biodistribution Bone", "setting": "[3]", "value": "3.69 ± 1.86", "unit": "% IA/g"},
      {"measurement": "Biodistribution Heart", "setting": "[3]", "value": "0.32 ± 0.10", "unit": "% IA/g"},
      {"measurement": "Biodistribution Intestine", "setting": "[3]", "value": "1.52 ± 0.60", "unit": "% IA/g"},
      {"measurement": "Biodistribution Kidney", "setting": "[3]", "value": "159 ± 31", "unit": "% IA/g"},
      {"measurement": "Biodistribution LNCaP-tumor", "setting": "[3]", "value": "10.2 ± 1.53", "unit": "% IA/g"},
      {"measurement": "Biodistribution Liver", "setting": "[3]", "value": "0.54 ± 0.27", "unit": "% IA/g"},
      {"measurement": "Biodistribution Lung", "setting": "[3]", "value": "1.43 ± 0.43", "unit": "% IA/g"},
      {"measurement": "Biodistribution Muscle", "setting": "[3]", "value": "0.90 ± 0.36", "unit": "% IA/g"},
      {"measurement": "Biodistribution Pancreas", "setting": "[3]", "value": "0.70 ± 0.12", "unit": "% IA/g"},
      {"measurement": "Biodistribution Salivary gland", "setting": "[3]", "value": "1.56 ± 0.31", "unit": "% IA/g"},
      {"measurement": "Biodistribution Spleen", "setting": "[3]", "value": "6.38 ± 1.37", "unit": "% IA/g"},
      {"measurement": "Biodistribution Stomach", "setting": "[3]", "value": "0.69 ± 0.11", "unit": "% IA/g"},
      {"measurement": "Ratio Tumor/Blood", "setting": "[3]", "value": "45.3 ± 19.7"},
      {"measurement": "Ratio Tumor/Kidney", "setting": "[3]", "value": "0.07 ± 0.02"},
      {"measurement": "Ratio Tumor/Liver", "setting": "[3]", "value": "23.5 ± 12.5"},
      {"measurement": "Ratio Tumor/Muscles", "setting": "[3]", "value": "13.6 ± 8.3"}
    ]},
    {"smiles": "C[C@@H](O)[C@@H]1NC(=O)[C@H](CCCCN)NC(=O)[C@@H](Cc2c[nH]c3ccccc23)NC(=O)[C@H](Cc2ccc(O)cc2)NC(=O)[C@@H](NC(=O)[C@@H](Cc2ccccc2)NC(=O)CCC(C(=O)O)N2CCN(CC(=O)O)CCN(CC(=O)O)CC2)CSSC[C@@H](C(=O)N[C@H](CO)[C@@H](C)O)NC1=O", "note": "(single isomer, unassigned) [[^61/^64Cu]Cu-NODAGA-TOC, metal not drawn]", "values": [
      {"measurement": "tissue uptake at 1 h", "setting": "[4]; [5]", "value": "1.06 ± 0.24", "unit": "%ID/g"},
      {"measurement": "tissue uptake at 4 h", "setting": "[4]; [5]", "value": "0.63 ± 0.22", "unit": "%ID/g"},
      {"measurement": "tissue uptake at 1 h", "setting": "[4]; [6]", "value": "0.24 ± 0.08", "unit": "%ID/g"},
      {"measurement": "tissue uptake at 4 h", "setting": "[4]; [6]", "value": "0.04 ± 0.02", "unit": "%ID/g"},
      {"measurement": "tissue uptake at 12 h", "setting": "[4]; [6]", "value": "0.04 ± 0.01", "unit": "%ID/g"},
      {"measurement": "tissue uptake at 24 h", "setting": "[4]; [6]", "value": 0.03, "unit": "%ID/g"},
      {"measurement": "tissue uptake at 1 h", "setting": "[4]; [7]", "value": "0.45 ± 0.14", "unit": "%ID/g"},
      {"measurement": "tissue uptake at 4 h", "setting": "[4]; [7]", "value": "0.28 ± 0.11", "unit": "%ID/g"},
      {"measurement": "tissue uptake at 24 h", "setting": "[4]; [7]", "value": "0.06 ± 0.01", "unit": "%ID/g"},
      {"measurement": "tissue uptake at 1 h", "setting": "[4]; [8]", "value": "0.17 ± 0.03", "unit": "%ID/g"},
      {"measurement": "tissue uptake at 4 h", "setting": "[4]; [8]", "value": "0.07 ± 0.02", "unit": "%ID/g"},
      {"measurement": "tissue uptake at 12 h", "setting": "[4]; [8]", "value": "0.09 ± 0.02", "unit": "%ID/g"},
      {"measurement": "tissue uptake at 24 h", "setting": "[4]; [8]", "value": "0.07 ± 0.02", "unit": "%ID/g"},
      {"measurement": "tissue uptake at 1 h", "setting": "[4]; [9]", "value": "0.96 ± 0.12", "unit": "%ID/g"},
      {"measurement": "tissue uptake at 4 h", "setting": "[4]; [9]", "value": "0.69 ± 0.19", "unit": "%ID/g"},
      {"measurement": "tissue uptake at 1 h", "setting": "[4]; [10]", "value": "17.2 ± 4.46", "unit": "%ID/g"},
      {"measurement": "tissue uptake at 4 h", "setting": "[4]; [10]", "value": "7.64 ± 3.85", "unit": "%ID/g"},
      {"measurement": "tissue uptake at 1 h", "setting": "[4]; [11]", "value": "0.35 ± 0.08", "unit": "%ID/g"},
      {"measurement": "tissue uptake at 4 h", "setting": "[4]; [11]", "value": "0.28 ± 0.08", "unit": "%ID/g"},
      {"measurement": "tissue uptake at 1 h", "setting": "[4]; [12]", "value": "1.07 ± 0.17", "unit": "%ID/g"},
      {"measurement": "tissue uptake at 4 h", "setting": "[4]; [12]", "value": "0.5 ± 0.24", "unit": "%ID/g"},
      {"measurement": "tissue uptake at 1 h", "setting": "[4]; [13]", "value": "0.16 ± 0.05", "unit": "%ID/g"},
      {"measurement": "tissue uptake at 4 h", "setting": "[4]; [13]", "value": "0.07 ± 0.03", "unit": "%ID/g"},
      {"measurement": "tissue uptake at 12 h", "setting": "[4]; [13]", "value": "0.02 ± 0.01", "unit": "%ID/g"},
      {"measurement": "tissue uptake at 24 h", "setting": "[4]; [13]", "value": 0.01, "unit": "%ID/g"},
      {"measurement": "tissue uptake at 1 h", "setting": "[4]; [14]", "value": "2.71 ± 0.4", "unit": "%ID/g"},
      {"measurement": "tissue uptake at 4 h", "setting": "[4]; [14]", "value": "0.6 ± 0.19", "unit": "%ID/g"},
      {"measurement": "tissue uptake at 24 h", "setting": "[4]; [14]", "value": "0.07 ± 0.01", "unit": "%ID/g"},
      {"measurement": "tissue uptake at 1 h", "setting": "[4]; [15]", "value": "3.39 ± 1.11", "unit": "%ID/g"},
      {"measurement": "tissue uptake at 4 h", "setting": "[4]; [15]", "value": "2.71 ± 1.84", "unit": "%ID/g"},
      {"measurement": "tissue uptake at 1 h", "setting": "[4]; [16]", "value": "0.23 ± 0.04", "unit": "%ID/g"},
      {"measurement": "tissue uptake at 4 h", "setting": "[4]; [16]", "value": "0.1 ± 0.03", "unit": "%ID/g"},
      {"measurement": "tissue uptake at 12 h", "setting": "[4]; [16]", "value": "0.1 ± 0.02", "unit": "%ID/g"},
      {"measurement": "tissue uptake at 24 h", "setting": "[4]; [16]", "value": "0.07 ± 0.02", "unit": "%ID/g"},
      {"measurement": "tissue uptake at 1 h", "setting": "[4]; [17]", "value": "2.62 ± 0.48", "unit": "%ID/g"},
      {"measurement": "tissue uptake at 4 h", "setting": "[4]; [17]", "value": "1.35 ± 0.26", "unit": "%ID/g"},
      {"measurement": "blood clearance", "setting": "[4]; healthy mice, 1 to 24 hours after injection", "value": "very fast blood clearance"}
    ]}
  ]
}
